{"source": "patent US20250195553A1", "about": "“Use of Genipin-1-B-D-Gentiobioside in Preparation of Drug” (Guizhou Bailing Group Pharmaceutical Co., Ltd., priority 2023, published 2025)", "key": {"[1]": {"test_system": "Mycoplasma Pneumoniae (MP)", "test": "Mycoplasma pneumoniae-infected mouse pneumonia model: lung index", "type": "in vivo, BALB/C mice", "set-up": "First Batch Inhibition Rate: unit not given here"}, "[2]": {"test_system": "Mycoplasma Pneumoniae (MP)", "test": "Inflammatory factors in lung tissue of MP-infected mice (ELISA)", "type": "in vivo, BALB/C mice", "settings": "42 mg/kg", "experimental": "[…] Each group consisted of 10 mice, with an equal number of males and females. Except for the normal control group, all mice were lightly anesthetized with isoflurane and infected intranasally with Mycoplasma Pneumoniae (50 μl per mouse) for three consecutive days. On the day of infection, each treatment group received nebulized medication once daily for four consecutive days, while the normal control group and model control group received nebulized saline under the same conditions. On the fifth day, the mice were weighed, sacrificed by cervical dislocation, and their lung tissues were dissected, weighed, and used to calculate the lung index and lung index inhibition rate; measure the levels of inflammatory factors in the lung tissue; measure the serum CRP levels; and conduct pathological examinations of the lung tissue. The results were statistically analyzed using the t-test for intergroup comparisons.\n(1) Sample Collection and Storage: Tissue Homogenate Samples: After weighing, lung tissues were collected from 8 mice in each group and stored at −80° C. The MP Fastprep-24 5G Rapid Sample Preparation System was used to homogenize the tissues, followed by centrifugation at […] and 3000 r/min for 10 minutes using a low-temperature high-speed centrifuge. The supernatant was then aspirated, aliquoted, and stored at −80° C. for future use, avoiding repeated freeze-thaw cycles.\n(2) The microplate, which had been equilibrated to room temperature, was removed from the sealed bag. Different concentrations of standards were added to the corresponding wells, with 50 μL per well. For experimental samples, 10 μL of sample was added to each well, followed by 40 μL of diluent. Except for the blank wells, 100 μL of HRP (Horseradish Peroxidase) was added to each well. The reaction wells were sealed with sealing tape and incubated at 37° C. for 1 hour. The plate was then washed with wash buffer four times. After the final wash, the plate was inverted and all residual liquid was patted dry on absorbent paper. 50 μL of both Substrate A and Substrate B were added to each well. The reaction wells were then sealed with sealing tape and incubated at 37° C. for 15 minutes. After that, 50 μL of stop solution was added to each well, and the absorbance at 450 nm was measured using a microplate reader within 15 minutes. The results were then calculated."}, "[3]": {"test_system": "Mycoplasma Pneumoniae (MP)", "test": "Pathological changes in lung tissue of MP-infected mice (HE staining)", "type": "in vivo, BALB/C mice", "set-up": "Alveolitis Lesion Degree / Bronchial Damage / Histological Damage Degree: scale not given here", "settings": "Azithromycin Group", "experimental": "Fifty BALB/C mice, weighing 14±1 g, were randomly divided into five groups: a normal control group, a model control group, an azithromycin control group, a high-dose Genipin-1-β-D-gentiobioside group (75 mg/ml) with 15-minute nebulization, and a low-dose Genipin-1-β-D-gentiobioside group (37.5 mg/ml) with 15-minute nebulization. Each group consisted of 10 mice, with an equal number of males and females. Except for the normal control group, all mice were lightly anesthetized with isoflurane and infected intranasally with Mycoplasma Pneumoniae (50 μl per mouse) for three consecutive days. On the day of infection, each treatment group received nebulized medication once daily for four consecutive days, while the normal control group and model control group received nebulized saline under the same conditions. On the fifth day, the mice were weighed, sacrificed by cervical dislocation, and their lung tissues were dissected, weighed, and used to calculate the lung index and lung index inhibition rate; measure the levels of inflammatory factors in the lung tissue; measure the serum CRP levels; and conduct pathological examinations of the lung tissue. The results were statistically analyzed using the t-test for intergroup comparisons.\n2.4 Pathological Changes in Mouse Lung Tissue (HE Staining Method)"}, "[4]": {"test_system": "Human Coronavirus OC43 (HCoV-OC43)", "type": "in vivo", "settings": "mouse, in vivo"}, "[5]": {"test_system": "Human Coronavirus OC43 (HCoV-OC43)", "type": "in vivo", "settings": "90 mg/kg administration by gavage"}, "[6]": {"test_system": "Human Respiratory Syncytial Virus (RSV)", "test": "RSV viral load in mouse lung tissue (RT-PCR), nebulization", "type": "in vivo", "settings": "dosage 82.5 (mg/ml), nebulization time 25 min", "experimental": "[…] Each group consisted of 10 mice, with an equal number of males and females. Except for the normal control group, all mice were lightly anesthetized with isoflurane and infected with respiratory syncytial virus (RSV) via intranasal administration, with each mouse receiving 35 μl of the virus. On the day of infection, the treatment groups began inhalation administration. Each group received nebulization for 25 minutes once daily for four consecutive days. The normal control group and the model control group received nebulized saline under the same conditions. On the fifth day, after weighing, the mice were sacrificed by cervical dislocation, and their lung tissues were dissected, weighed, and used to calculate the lung index and lung index inhibition rate. The lung tissues were also retained for virus load, pathological examination, and inflammatory factor detection. The results were statistically analyzed using the t-test for intergroup comparisons.\nAfter dissecting the mice, the lung tissues were collected and stored in separate containers at −80° C. in a low-temperature freezer. The lung tissues were then removed from the −80° C. freezer and placed in a clean mortar. A small amount of liquid nitrogen was poured into the mortar, and the tissues were ground into powder using a pestle. The powder was collected in a 1.5 ml centrifuge tube, and 1 ml of TRIzol Reagent was immediately added. The tube was gently tapped at the bottom to mix the sample and ensure it was resuspended as soon as possible. The centrifuge tube was then placed horizontally at room temperature and incubated for 20 minutes. Next, it was centrifuged at 4° C. and 12,000 rpm for 10 minutes. The clear supernatant was transferred to a new 1.5 ml centrifuge tube, and 0.2 ml of chloroform was added. The tube was tightly capped, vigorously shaken for 15 seconds, and then incubated at room temperature for 2-3 minutes until the liquid separated into layers. After centrifuging at 4° C. and 12,000 rpm for 15 minutes, the transparent supernatant was carefully transferred to a new 1.5 ml centrifuge tube. Then, 0.5 ml of isopropanol was added, mixed well, and incubated at room temperature for 30 minutes. Following centrifugation at 4° C. and 12,000 rpm for 10 minutes, the supernatant was discarded. The precipitate was gently washed with 1 ml of 75% ethanol (to allow the white precipitate to float slightly), and then centrifuged at 4° C. and 7,500 rpm for 5 minutes. The supernatant was completely aspirated, and the RNA precipitate was briefly dried for 5-10 minutes. The precipitate was then dissolved in 20 μl of DEPC (Diethylpyrocarbonate)-treated water and stored in a −80° C. low-temperature freezer.\nTreatment of Control Nucleic Acid: DEPC-H2O was used as a negative control. For the positive control, a series of four concentrations were prepared by gradient dilution at 10^7, 10^6, 10^5, and 10^4 copies/ml.\nReagent Preparation: Mix n×18 μl of RSV nucleic acid fluorescent PCR detection mixture, n×1 μl of internal control, and n×1 μl of RT-PCR enzyme (where n is the number of reaction tubes). Shake vigorously for a few seconds and centrifuge at 3000 rpm for a few seconds.\nSample Addition: Dispense 20 μl of the above mixture into each PCR tube. Then, add 5 μl of sample nucleic acid extract, DEPC-H2O, and positive control to the respective PCR tubes. Tightly close the tube caps, centrifuge for a few seconds to ensure all liquids are at the bottom, and immediately proceed with PCR amplification.\nPCR Amplification: Place the reaction tubes in a quantitative fluorescent PCR instrument. Set the cycling parameters as follows: 45° C. for 10 minutes; 95° C. for 15 minutes; then 40 cycles of 95° C. for 15 seconds→60° C. for 60 seconds. Single-point fluorescent detection is performed at 60° C., with a reaction volume of 25 μl.\nFluorescent Channel Selection: Select the FAM and HEX/VIC/JOE channels for detection. […]"}, "[7]": {"test_system": "Lipopolysaccharide (LPS)-induced pneumonia model in mice", "test": "LPS-induced pneumonia model in mice, intravenous injection: lung index", "type": "in vivo, ICR mice", "settings": "50 mg/kg i.v. once daily 2 days", "experimental": "(§1) Sixty healthy mice, weighing 18˜20 g, half male and half female, were selected and randomly grouped after stratification by weight; they were divided into a normal control group, a model control group, three Genipin-1-β-D-gentiobioside dose groups (150 mg/kg/d, 75 mg/kg/d, 37.5 mg/kg/d), and a positive control drug Sivelestat Sodium 50 mg/kg/d group, with 10 mice in each group, half male and half female. After grouping, each treatment group was administered intravenously at 20 ml/kg once daily for 2 consecutive days, while the normal control group and model control group were injected with physiological saline. One hour after the second dose, except for the normal control group, the other groups were lightly anesthetized with isoflurane, and a 20 mg/ml LPS physiological saline solution was administered intranasally to the mice at 0.05 ml/mouse to induce the pneumonia model. Six hours after infection, the animals were sacrificed, dissected, and their lungs were removed and weighed to calculate the lung index (lung index=lung weight/body weight×100%)."}, "[8]": {"test_system": "Lipopolysaccharide (LPS)-induced pneumonia model in mice", "test": "Inflammatory factors in lung tissue of LPS-induced pneumonia mice (ELISA)", "type": "in vivo, ICR mice", "settings": "dosage 50 (mg/ml), i.v.", "experimental": "as §1\n(1) Sample Collection and Storage: Tissue homogenate samples: The lung tissues of mice were collected and weighed, including those from mice numbered 1, 2, 3, 6, 7, and 8 in each group. The tissues were stored at […] An ultrasonic cell disruptor was used to homogenize the tissues, followed by centrifugation at […] and 1000 r/min for 10 minutes using a low-temperature high-speed centrifuge. The supernatant was then collected, aliquoted, and stored at −80° C. for future use, avoiding repeated freeze-thaw cycles.\n(2) The microwell plate, which had been equilibrated to room temperature, was removed from the sealed bag. Different concentrations of standards, experimental samples, or quality control samples were added to the corresponding wells, with 100 μL per well. The reaction wells were sealed with sealing tape and incubated at room temperature for 2 hours. The plate was then washed with wash buffer, repeating the operation four times. After the final wash, the plate was inverted and all residual liquid was patted dry on absorbent paper. Next, 100 μL of enzyme-labeled detection antibody was added to each microwell. The reaction wells were sealed again with sealing tape and incubated at room temperature for another 2 hours. The washing step was repeated as described above. Then, 100 μL of substrate solution was added to each microwell and incubated at room temperature for 30 minutes, protected from light. Within 30 minutes after adding 100 μL of stop solution to each microwell, the absorbance at 450 nm was measured using a microplate reader. The results were then calculated."}, "[9]": {"settings": "42 mg/kg administration by gavage, first batch"}, "[10]": {"settings": "42 mg/kg administration by gavage"}}, "note": "Where two headings read alike, the source gives them in different places."}
{"smiles": "CC[C@H]1OC(=O)[C@H](C)[C@@H](O[C@H]2C[C@@](C)(OC)[C@@H](O)[C@H](C)O2)[C@H](C)[C@@H](O[C@@H]2O[C@H](C)C[C@H](N(C)C)[C@H]2O)[C@](C)(O)C[C@@H](C)CN(C)[C@H](C)[C@@H](O)[C@]1(C)O", "note": "[Azithromycin, azithromycin, reference compound]", "values": [{"measurement": "First Batch Inhibition Rate", "setting": "[1]; [9]", "value": 65.93}, {"measurement": "First Batch Lung Index", "setting": "[1]; [9]", "value": "0.77 ± 0.05"}, {"measurement": "Second Batch Inhibition Rate", "setting": "[1]; [10]", "value": 98.72}, {"measurement": "Second Batch Lung Index", "setting": "[1]; [10]", "value": "0.62 ± 0.09"}, {"measurement": "Second Batch Inhibition Rate", "setting": "[1]; injection administration", "value": 98.26}, {"measurement": "Second Batch Lung Index", "setting": "[1]; injection administration", "value": "0.62 ± 0.06"}, {"measurement": "Inflammatory Factor Levels in Lung Tissue IL-1β", "setting": "[2]", "value": "144.98 ± 15.93", "unit": "pg/mL"}, {"measurement": "Inflammatory Factor Levels in Lung Tissue IL-6", "setting": "[2]", "value": "85.26 ± 25.59", "unit": "pg/mL"}, {"measurement": "Inflammatory Factor Levels in Lung Tissue TNF-α", "setting": "[2]", "value": "345.86 ± 53.85", "unit": "pg/mL"}, {"measurement": "Alveolitis Lesion Degree", "setting": "[3]", "value": 59.70}, {"measurement": "Bronchial Damage", "setting": "[3]", "value": 54.80}, {"measurement": "Histological Damage Degree", "setting": "[3]", "value": "2.43 ± 0.32"}, {"measurement": "Interstitial Inflammatory Cell Infiltration", "setting": "[3]", "value": 58.80}]}
{"smiles": "CCN(CC)CCCC(C)Nc1ccnc2cc(Cl)ccc12", "note": "(stereo not drawn) [Chloroquine, Chloroquine Phosphate, reference compound]", "values": [{"measurement": "Inhibition Rate (lung index)", "setting": "[4]", "value": 42.72, "unit": "%"}, {"measurement": "Lung Index", "setting": "[4]", "value": "0.80 ± 0.05 g lung weight × 100 g/body weight"}, {"measurement": "Inhibition Rate (lung index)", "setting": "[5]", "value": 96.56, "unit": "%"}, {"measurement": "Lung Index", "setting": "[5]", "value": "0.73 ± 0.11 g lung weight × 100 g/body weight"}]}
{"smiles": "NC(=O)c1ncn([C@@H]2O[C@H](CO)[C@@H](O)[C@H]2O)n1", "note": "[Ribavirin, reference compound]", "values": [{"measurement": "Inhibition Rate (viral load)", "setting": "[6]", "value": 69.54, "unit": "%"}, {"measurement": "Viral Load in lung tissue", "setting": "[6]", "value": "17063.48 ± 16203.78", "unit": "copies/ng"}]}
{"smiles": "CC(C)(C)C(=O)Oc1ccc(S(=O)(=O)Nc2ccccc2C(=O)NCC(=O)O)cc1", "note": "[Sivelestat Sodium, reference compound]", "values": [{"measurement": "Inhibition Rate (lung index)", "setting": "[7]", "value": 85.50}, {"measurement": "Lung Index", "setting": "[7]; 6 h after LPS", "value": "0.86 ± 0.07", "unit": "g/100 g body weight"}, {"measurement": "Inflammatory Factor Levels in Lung Tissue IL-6", "setting": "[8]", "value": "15.79 ± 2.08", "unit": "pg/mL"}, {"measurement": "Inflammatory Factor Levels in Lung Tissue IL-10", "setting": "[8]", "value": "36.11 ± 4.87", "unit": "pg/mL"}, {"measurement": "Inflammatory Factor Levels in Lung Tissue TNF-α", "setting": "[8]", "value": "98.88 ± 11.21", "unit": "pg/mL"}]}
